Consider 15 compounds from ChEMBL document CHEMBL4266001, “Potent Antimalarial Activity of Two Arenes Linked with Triamine Designed To Have Multiple Interactions with Heme” (ACS Med Chem Lett, 2018).

The test system of data set [1] is Plasmodium falciparum. Kind of data set: Antiplasmodial activity against chloroquine-resistant Plasmodium falciparum K1 infected in human erythrocytes measured after 72 hrs by malstat reagent based LDH release assay. In kind it is functional, organism-based. The conditions noted are these: K1, 72 h.
In data set [2] the test system is Plasmodium falciparum. Kind of data set: Antiplasmodial activity against chloroquine-sensitive Plasmodium falciparum FCR-3 infected in human erythrocytes measured after 72 hrs by malstat reagent based LDH release assay. In kind it is functional, organism-based. The conditions noted are these: FCR-3/Gambia.
Data set [3] is described as follows: Selectivity index, ratio of cytotoxic concentration for human MRC5 cells to IC50 for chloroquine-resistant Plasmodium falciparum K1 infected in human erythrocytes.
Data set [4] concerns Plasmodium berghei. The data set is described as follows: Antimalarial activity against Plasmodium berghei N infected in mouse assessed as inhibition of parasitemia at 15 mg/kg, po once daily for 4 consecutive days starting from 2 hrs post infection measured on day 4 post last dose relative to control. The class given is functional.
For data set [5], the system named is Plasmodium berghei. Kind of data set: Antimalarial activity against Plasmodium berghei N infected in mouse assessed as mouse survival at 15 mg/kg, po once daily for 4 consecutive days starting from 2 hrs post infection relative to control. In kind it is functional.
Data set [6] can be described thus: Binding affinity to hemin at pH 5.2 by ITC.
Data set [7] is described as follows: Inhibition of Plasmodium falciparum FCR-3 HDP expressed in Escherichia coli assessed as reduction in hemazoin formation. Further details: species or system Plasmodium falciparum FCR-3/Gambia.
The subject of data set [8] is Plasmodium berghei. The data set is described as follows: animal or person. The conditions noted are these: N, in Mus musculus, sc. The class given is functional.
The test system of data set [9] is Plasmodium berghei. The data set is described as follows: animal or person. In kind it is functional. The conditions noted are these: N, in Mus musculus, po.
In data set [10] the test system is Plasmodium berghei. The data set is described as follows: Antimalarial activity against Plasmodium berghei N infected in mouse assessed as mouse survival at 30 mg/kg, sc once daily for 4 consecutive days starting from 2 hrs post infection relative to control. The class given is functional.
In data set [11] the test system is Plasmodium berghei. The data set is described as follows: Antimalarial activity against Plasmodium berghei N infected in mouse assessed as mouse survival at 30 mg/kg, po once daily for 4 consecutive days starting from 2 hrs post infection relative to control. The class given is functional.

Activity calls are given as the source filed them. The rule behind the calls is not given here. A value given as a limit tells only on which side of the number the result lay.

In the case of `CN(CCNC(=O)C=Cc1ccc2ccccc2n1)CCNc1ccnc2cc(Cl)ccc12`, the IC50 turned out to be 870 nM in the data set on Plasmodium falciparum [1] and 76 nM in the data set with Plasmodium falciparum [2]. Further, the selectivity ratio in data set [3] was determined as 6.

In the case of `C[C@H]1[C@H](OC(=O)CCC(=O)O)O[C@@H]2O[C@@]3(C)CC[C@H]4[C@H](C)CC[C@@H]1[C@@]24OO3` [ARTESUNATE], in the data set with Plasmodium berghei [4], the inhibition in vivo at 15 mg/kg worked out at 95.2%. In addition, the survival at 15 mg/kg with Plasmodium berghei [5] stood at 103%.

In the case of `CN(CCNc1ccc2ccccc2n1)CCNc1ccnc2cc(Cl)ccc12`, the values for the IC50 in the data set on Plasmodium falciparum [1] and in the data set on Plasmodium falciparum [2] were 370 nM and 29 nM, respectively. Moreover, the selectivity ratio in data set [3] worked out at 36.

For `CN(CCNc1ccc2ccccc2n1)CCNc1ccc2ccccc2n1`, the IC50 with Plasmodium falciparum [1] was 18000 nM; in the data set with Plasmodium falciparum [2] it was 21000 nM. The selectivity ratio in [3] stood at 17.

Consider `CN(CCNC(=O)C=Cc1cnc[nH]1)CCNc1ccnc2cc(Cl)ccc12`, for which the IC50 came out at 18000 nM in the data set on Plasmodium falciparum [1] and 750 nM with Plasmodium falciparum [2]. Also, the selectivity ratio in data set [3] was above 14.

With `CN(CCNc1nc2ccccc2[nH]1)CCNc1nc2ccccc2[nH]1`, the values for the IC50 with Plasmodium falciparum [1] and with Plasmodium falciparum [2] were 19000 nM and 17300 nM, respectively. Further, in [3], the selectivity ratio amounted to 4.7.

`CN(CCNc1nccc2ccccc12)CCNc1ccnc2cc(Cl)ccc12`: the IC50 with Plasmodium falciparum [1] turned out to be 270 nM; in the data set on Plasmodium falciparum [2], 24 nM. The selectivity ratio in data set [3] amounted to 36.

`CCN(CC)CCCC(C)Nc1ccnc2cc(Cl)ccc12` (stereo unspecified) [CHLOROQUINE]: in data set [6], the result was Active. Also, in data set [7], the IC50 worked out at 46 nM.

As to `CN(CCCNc1ccc2ccccc2n1)CCCNc1ccnc2cc(Cl)ccc12`, the results for the IC50 (in the data set with Plasmodium falciparum [1]; in the data set on Plasmodium falciparum [2]; in data set [7]) were 37 nM, 0.92 nM and 0.92 nM, respectively. Further, the selectivity ratio in data set [3] amounted to 61. The result in data set [6] was Active.

On to `CN(CCCNC(=O)C=Cc1ccc2ccccc2c1)CCCNc1ccnc2cc(Cl)ccc12`, for which the IC50 in the data set on Plasmodium falciparum [1] worked out at 10 nM; in the data set with Plasmodium falciparum [2], 4.9 nM. Also, the selectivity ratio in data set [3] came out at 140.

On to `CN(CCNc1nc2ccccc2[nH]1)CCNc1ccnc2cc(Cl)ccc12`, for which the IC50 in the data set with Plasmodium falciparum [1] stood at 3100 nM; in the data set on Plasmodium falciparum [2] it was 230 nM. In addition, the selectivity ratio in data set [3] was 8.5.

Consider `CN(CCNc1ncccn1)CCNc1ccnc2cc(Cl)ccc12`, for which the results for the IC50 in the data set with Plasmodium falciparum [1] and in the data set on Plasmodium falciparum [2] were 750 nM and 210 nM, respectively. For the same compound, in [3], the selectivity ratio was found to be 40.

Regarding `CN(CCNC(=O)C=Cc1ccc2ccccc2c1)CCNc1ccnc2cc(Cl)ccc12`, the IC50 in the data set with Plasmodium falciparum [1] was 28 nM; in the data set on Plasmodium falciparum [2], 12 nM; in [7] it was 12 nM. Also, the selectivity ratio in data set [3] turned out to be 1200. In addition, the inhibition in vivo at 30 mg/kg in the data set with Plasmodium berghei [8] is 100%; in the data set on Plasmodium berghei [9], 23.5%. Further, the survival at 30 mg/kg in the data set on Plasmodium berghei [10] is 223%; with Plasmodium berghei [11] it was 100%. Further, in data set [6], the result was Active.

In the case of `CN(CCCNc1ccnc2cc(Cl)ccc12)CCCNc1ccnc2cc(Cl)ccc12`, the IC50 came to 21 nM in the data set with Plasmodium falciparum [1] and 97 nM in the data set on Plasmodium falciparum [2]. Besides, the selectivity ratio in [3] came out at 66.

With `CN(CCNc1ccccn1)CCNc1ccnc2cc(Cl)ccc12`, the IC50 with Plasmodium falciparum [1] worked out at 1100 nM; with Plasmodium falciparum [2] it was 510 nM. Besides, the selectivity ratio in [3] was 430.
